Experimental data reported in PMC4041848, “Differential Effects of Omeprazole and Lansoprazole Enantiomers on Aryl Hydrocarbon Receptor in Human Hepatocytes and Cell Lines” (PLoS ONE, 2014).
Like-named read-outs stand apart in the source and are kept apart here.

What was measured:
[1] = test system: CYP1A1/1A2 enzymes (EROD); assay: EROD activity in primary human hepatocytes; conditions: hepatocyte culture Hep220774, 24 h, 5 nM
Procedure: (§1) Figure 3 Effects of omeprazole and lansoprazole enantiomers on CYP1A1 mRNA, protein and EROD activity in primary human hepatocytes. Panel A and Panel B: RT-PCR analyses of CYP1A1 and CYP1A2 mRNA and western blots of CYP1A1 and CYP1A2 from two different cultures (HH52 and Hep220770) are shown. Human hepatocytes were incubated for 24 h (mRNA analysis) or 48 (protein analysis) with S-OME, R-OME, rac-OME, S-LAN, R-LAN, rac-LAN, TCDD and vehicle (DMSO; 0.1% v/v). RT-PCR data are the mean ± SD from triplicate measurements and are expressed as fold induction over vehicle-treated cells. Data were normalized to GAPDH mRNA levels. Density of bands in western blots was quantified by densitometry and the values are indicated along with respective blots. Panel C: EROD and cytotoxicity: Human hepatocytes (culture Hep220774) were treated for 24 h with S-OME, R-OME, rac-OME, S-LAN, R-LAN, rac-LAN, TCDD and vehicle (DMSO; 0.1% v/v). Upper bar graph: An activity of 7-ethoxyresorufin- O-deethylase (EROD) was measured by fluorescent spectrophotometry with 530 nm excitation and 590 nm emission filters. Treatments were performed in triplicates. The data are expressed as fold induction over the value from control cells. Lower bar graph: A conventional MTT test was performed and absorbance was measured at 540 nm. […] The data are expressed as percentage of viability of control cells. […]

[2] = test system: aryl hydrocarbon receptor AhR; assay: AhR gene reporter assay, agonist mode; conditions: for AhR agonist efficacy: AZ-AHR cells, 24 h, compared to 5 nM TCDD, calculated at 100 µM compound (stated for omeprazole); for EC50 at 24 h: human
Procedure: (§2) A stably transfected gene reporter cell line AZ-AHR, derived from human hepatoma HepG2 cells transfected with a construct containing several AhR binding sites upstream of a luciferase reporter gene, was used for assessment of AhR transcriptional activity. Cells were incubated for 24 h with tested compounds and/or vehicle (DMSO; 0.1% v/v), in the presence or absence of TCDD (10 nM; AZ-AHR cells) or DEX (100 nM; AZ-GR cells). After the treatments, cells were lysed and luciferase activity was measured. In parallel, cell viability was determined by conventional MTT test.
(§3) Figure 1 Effect of omeprazole and lansoprazole enantiomers on transcriptional activity of aryl hydrocarbon receptor AhR in human gene reporter cell line AZ-AHR. The cells were seeded in 96-well plates and stabilized for 16 h. Panels A and B: Cells were incubated for 24 h with S-OME, R-OME, rac-OME, S-LAN, R-LAN and rac-LAN at concentrations ranging from 10^−10 M to 10^−4 M. The vehicle was DMSO (0.1% v/v). After the treatment, MTT test was performed and absorbance was measured at 540 nm. Treatments were performed in triplicates. The data are the mean from experiments from six different passages of cells and are expressed as a percentage of viability of control cells. The values of IC50 were calculated and are indicated in a figure. Panels C - F: AZ-AHR cells were incubated for 24 h with S-OME, R-OME, rac-OME, S-LAN, R-LAN and rac-LAN at concentrations ranging from 10^−10 M to 10^−4 M in the absence (Panels C and D - agonist mode) or in the presence (Panels E and F- antagonist mode) of TCDD (5 nM). The vehicle was DMSO (0.1% v/v). After the treatments, cells were lysed and luciferase activity was measured. Treatments were performed in triplicates in five (agonist mode) or four (antagonist mode) independent cell passages. […] Data are expressed as a fold induction of luciferase activity over control cells (Panels C and D - agonist mode) or as a percentage of maximal induction attained by TCDD (Panels E and F- antagonist mode).
Gene reporter assays were performed in two different experimental layouts. […] In antagonist mode, cells were incubated with increasing concentrations of tested compounds in combination with model agonist (TCDD; 5 nM), and half-maximal inhibitory concentrations (IC50) were calculated. […] The efficacy was calculated at concentration of compounds of 100 µM and compared to 5 nM TCDD (Figure 1C).

[3] = test system: CYP1A1 catalytic activity (EROD); assay: EROD catalytic activity in HepG2 cells; conditions: HepG2, 24 h, 5 nM
[4] = test system: CYP1A1 mRNA; conditions: HepG2, 24 h
Procedure: (§4) Total RNA was isolated using TRI Reagent (Molecular Research Center, Cincinnati, OH, USA). cDNA was synthesized from 1000 ng of total RNA using M-MLV Reverse Transcriptase (Finnzymes, Espoo, Finland) at 42°C for 60 min in the presence of random hexamers (Takara, Shiga, Japan). qRT-PCR was carried out using LightCycler FastStart DNA MasterPLUS SYBR Green I (Roche Diagnostic Corporation, Prague, Czech Republic) on a Light Cycler 480 II apparatus (Roche Diagnostic Corporation). CYP1A1, CYP1A2 and GAPDH mRNAs were determined as described previously. Measurements were performed in triplicates. Gene expression was normalized to GAPDH as a housekeeping gene.
Treatments were performed in triplicates.

[5] = test system: CYP1A1 protein; assay: CYP1A1 protein induction in primary human hepatocytes (western blot); conditions: hepatocyte culture HH52, 48 h
Description: Primary human hepatocytes used in this study were obtained from two sources: (i) from multiorgan donor HH52; the use of liver cells of donor HH52 was approved by “Ethical committee at the Faculty Hospital Olomouc”,and it was in accordance with Transplantation law #285/2002 Sb; “Ethical committee at the Faculty Hospital Olomouc” waived the authors from obtaining consent from the next of kin, regarding human hepatocytes obtained from liver donor HH52. (ii) long-term human hepatocytes in monolayer Batch HEP220770 (person), Batch HEP220774 (person) were purchased from Biopredic International (Biopredic International, Rennes, France). Cells were cultured in serum-free medium. […]
Total protein extracts were prepared from cells cultured on 6-well plates. […] Supernatant was collected and the protein content was determined by the Bradford reagent. […] The density of bands was measured by densitometry. […]
Figure 3 Effects of omeprazole and lansoprazole enantiomers on CYP1A1 mRNA, protein and EROD activity in primary human hepatocytes. […] RT-PCR data are the mean ± SD from triplicate measurements and are expressed as fold induction over vehicle-treated cells. […] Density of bands in western blots was quantified by densitometry and the values are indicated along with respective blots. […] The data are expressed as fold induction over the value from control cells. […]

[6] = MTT cytotoxicity test in AZ-AHR reporter cells; conditions: human
Procedure: as §2
(§5) In the first series of experiments, the cytotoxicity of tested compounds was assessed in gene reporter cell line AZ-AHR. For this purpose, the cells were incubated for 24 h with S-OME, R-OME, rac-OME, S-LAN, R-LAN and rac-LAN at concentration ranging from 100 pM to 250 µM. The vehicle was DMSO (0.1% v/v). After the treatment, a conventional MTT test was performed.
as §3

[7] = set-up: method as in PMID 8710755, PMID 19298580; conditions: after oral administration of racemic drug; ref [8], [9]; cited from earlier work
[8] = test system: CYP1A1 mRNA; assay: CYP1A1 mRNA induction in primary human hepatocytes (qRT-PCR); conditions: 100 µM
Description: (§6) Primary human hepatocytes used in this study were obtained from two sources: (i) from multiorgan donor HH52; the use of liver cells of donor HH52 was approved by “Ethical committee at the Faculty Hospital Olomouc”,and it was in accordance with Transplantation law #285/2002 Sb; “Ethical committee at the Faculty Hospital Olomouc” waived the authors from obtaining consent from the next of kin, regarding human hepatocytes obtained from liver donor HH52. (ii) long-term human hepatocytes in monolayer Batch HEP220770 (person), Batch HEP220774 (person) were purchased from Biopredic International (Biopredic International, Rennes, France). Cells were cultured in serum-free medium. Cultures were maintained at 37°C and 5% CO2 in a humidified incubator.
as §4
We examined a capability of omeprazole and lansoprazole to induce CYP1A1 and CYP1A2 mRNA and protein in primary human hepatocytes, which is a more physiological and metabolically competent cell model. Human hepatocytes were treated for 24 h or 48 h with TCDD (5 nM), vehicle (DMSO; 0.1% V/V) and tested compounds.
Figure 3 Effects of omeprazole and lansoprazole enantiomers on CYP1A1 mRNA, protein and EROD activity in primary human hepatocytes. Panel A and Panel B: RT-PCR analyses of CYP1A1 and CYP1A2 mRNA and western blots of CYP1A1 and CYP1A2 from two different cultures (HH52 and Hep220770) are shown. Human hepatocytes were incubated for 24 h (mRNA analysis) or 48 (protein analysis) with S-OME, R-OME, rac-OME, S-LAN, R-LAN, rac-LAN, TCDD and vehicle (DMSO; 0.1% v/v). RT-PCR data are the mean ± SD from triplicate measurements and are expressed as fold induction over vehicle-treated cells. Data were normalized to GAPDH mRNA levels. Density of bands in western blots was quantified by densitometry and the values are indicated along with respective blots. Panel C: EROD and cytotoxicity: Human hepatocytes (culture Hep220774) were treated for 24 h with S-OME, R-OME, rac-OME, S-LAN, R-LAN, rac-LAN, TCDD and vehicle (DMSO; 0.1% v/v). Upper bar graph: An activity of 7-ethoxyresorufin- O-deethylase (EROD) was measured by fluorescent spectrophotometry with 530 nm excitation and 590 nm emission filters. Treatments were performed in triplicates. The data are expressed as fold induction over the value from control cells. Lower bar graph: A conventional MTT test was performed and absorbance was measured at 540 nm. Treatments were performed in triplicates. The data are expressed as percentage of viability of control cells.

[9] = test system: CYP1A2 protein; assay: CYP1A2 protein induction in primary human hepatocytes (western blot); conditions: 10 µM
Description: as §6
Total protein extracts were prepared from cells cultured on 6-well plates. Cells were washed twice with ice-cold PBS and scraped into 1 ml of PBS. The suspension was centrifuged (4500 RPM/5 min/4°C) and the pellet was resuspended in 150 µl of ice-cold lysis buffer (150 mM NaCl; 10 mM Tris pH 7.2; 0.1% (w/v) SDS; anti-protease cocktail, 1% (v/v) Triton X-100; anti-phosphatase cocktail, 1% (v/v) sodium deoxycholate; 5 mM EDTA). […] Supernatant was collected and the protein content was determined by the Bradford reagent. […] The density of bands was measured by densitometry. […]
Figure 3 Effects of omeprazole and lansoprazole enantiomers on CYP1A1 mRNA, protein and EROD activity in primary human hepatocytes. […] RT-PCR data are the mean ± SD from triplicate measurements and are expressed as fold induction over vehicle-treated cells. […] Density of bands in western blots was quantified by densitometry and the values are indicated along with respective blots. […] Upper bar graph: An activity of 7-ethoxyresorufin- O-deethylase (EROD) was measured by fluorescent spectrophotometry with 530 nm excitation and 590 nm emission filters. […] The data are expressed as fold induction over the value from control cells. Lower bar graph: A conventional MTT test was performed and absorbance was measured at 540 nm. […] The data are expressed as percentage of viability of control cells.

[10] = test system: CYP1A2 mRNA; assay: CYP1A2 mRNA induction in primary human hepatocytes (qRT-PCR); conditions: hepatocyte culture Hep220770, 24 h
Description: as §6
as §4, with “Gene expression was normalized to GAPDH as a housekeeping gene.” left out

[11] = test system: AZ-AHR cells; assay: MTT cytotoxicity test in AZ-AHR reporter cells; conditions: AZ-AHR cells, 24 h, MTT, concentrations up to 250 µM
Procedure: as §2, §5, §3

[12] = MTT cytotoxicity test in primary human hepatocytes; conditions: female, human, primary human hepatocytes, culture Hep220774
Procedure: as §1

[13] = hepatocyte culture Hep220770, 24 h

For `Clc1cc2c(cc1Cl)Oc1cc(Cl)c(Cl)cc1O2` [TCDD, 2,3,7,8-tetrachlorodibenzo-p-dioxin], which “induction of EROD activity” value [1] is on record?
Its value is “approximately 15 fold”.

And the “induction of AhR-dependent luciferase activity, average” value ([2]; 5 nM TCDD, five consecutive passages, vs vehicle-treated cells)?
The value was 354 fold.

What about the “EROD activity, average increase” value [3] of the same molecule?
Its value is 22-23 fold.

And the “CYP1A1 mRNA induction” value ([4]; 5 nM, vs vehicle-treated cells)?
Its value is “approximately 230 fold”.

And the “CYP1A1 protein induction” value [5]?
Its value is “drastic increase”.

With `Cc1c(OCC(F)(F)F)ccnc1C[S@@+]([O-])c1nc2ccccc2[nH]1` [R-LAN, R-lansoprazole] as the molecule, how does the IC50 at 24 h [6] read?
The IC50 at 24 h was greater than 250 µM.

What about the “share of circulating drug” value [7] of the same molecule?
The value was “more than 80%”.

What about the “systemic exposure relative to the S-enantiomer” value [7] of the same molecule?
The value was 5 fold.

What about the AhR agonist efficacy [2] of the same molecule?
Its AhR agonist efficacy is 23.0±10.0%.

And the EC50 at 24 h [2]?
The EC50 at 24 h was 5.7 ± 2.9 µM.

What about the “CYP1A1 mRNA induction” value ([8]; hepatocyte culture HH52, 24 h) of the same molecule?
The value was 17 % of TCDD induction.

What about the “CYP1A1 mRNA induction” value [8, 13] of the same molecule?
The value was 575 fold.

What about the “CYP1A1 mRNA induction relative to S-LAN” value ([4]; 100 µM) of the same molecule?
Its value is “four times stronger”.

What about the “CYP1A1 mRNA induction relative to rac-LAN” value ([4]; 100 µM) of the same molecule?
The value was “two times stronger”.

And the “CYP1A2 protein induction” value ([9]; hepatocyte culture HH52, 48 h)?
Its value is “strong induction”.

What about the “effect on CYP1A2 mRNA relative to S-LAN” value [10] of the same molecule?
The value was “two times stronger”.

With `COc1ccc2nc([S@@+]([O-])Cc3ncc(C)c(OC)c3C)[nH]c2c1` [S-OME, S-omeprazole] as the molecule, how does the IC50 at 24 h [6] read?
The IC50 at 24 h was greater than 250 µM.

And the “cytotoxicity” value [11]?
Its value is “not cytotoxic”.

What about the AhR agonist efficacy [2] of the same molecule?
The AhR agonist efficacy was 44.8±11.8%.

And the EC50 at 24 h [2]?
Its EC50 at 24 h is 22.9 ± 7.9 µM.

And the “CYP1A1 mRNA induction” value [8, 13]?
Its value is 736 fold.

What about the “CYP1A2 protein induction” value ([9]; both hepatocyte cultures (HH52, Hep220770), 48 h) of the same molecule?
Its value is “strongly induced”.

What about the viability at 24 h, 250 µM [12] of the same molecule?
Its viability at 24 h, 250 µM is 60%.
